Patent US12281119B2, “Imidazo[2,1-f][1,2,4]triazin-4-amine derivatives as TLR7 agonist” (BEIGENE, LTD., priority 2019, dated 2025)

The compounds below were run against T1, human TLR7 (Homo sapiens, UniProt Q9NYK1) (assay: HEK293-Blue hTLR7 reporter assay (QUANTI-BLUE, SEAP readout)). Conditions: HEK-Blue-hTLR7 cells, QUANTI-BLUE assay (A1-A76), 24 hrs.
T1 sequence (Q9NYK1 27-1049): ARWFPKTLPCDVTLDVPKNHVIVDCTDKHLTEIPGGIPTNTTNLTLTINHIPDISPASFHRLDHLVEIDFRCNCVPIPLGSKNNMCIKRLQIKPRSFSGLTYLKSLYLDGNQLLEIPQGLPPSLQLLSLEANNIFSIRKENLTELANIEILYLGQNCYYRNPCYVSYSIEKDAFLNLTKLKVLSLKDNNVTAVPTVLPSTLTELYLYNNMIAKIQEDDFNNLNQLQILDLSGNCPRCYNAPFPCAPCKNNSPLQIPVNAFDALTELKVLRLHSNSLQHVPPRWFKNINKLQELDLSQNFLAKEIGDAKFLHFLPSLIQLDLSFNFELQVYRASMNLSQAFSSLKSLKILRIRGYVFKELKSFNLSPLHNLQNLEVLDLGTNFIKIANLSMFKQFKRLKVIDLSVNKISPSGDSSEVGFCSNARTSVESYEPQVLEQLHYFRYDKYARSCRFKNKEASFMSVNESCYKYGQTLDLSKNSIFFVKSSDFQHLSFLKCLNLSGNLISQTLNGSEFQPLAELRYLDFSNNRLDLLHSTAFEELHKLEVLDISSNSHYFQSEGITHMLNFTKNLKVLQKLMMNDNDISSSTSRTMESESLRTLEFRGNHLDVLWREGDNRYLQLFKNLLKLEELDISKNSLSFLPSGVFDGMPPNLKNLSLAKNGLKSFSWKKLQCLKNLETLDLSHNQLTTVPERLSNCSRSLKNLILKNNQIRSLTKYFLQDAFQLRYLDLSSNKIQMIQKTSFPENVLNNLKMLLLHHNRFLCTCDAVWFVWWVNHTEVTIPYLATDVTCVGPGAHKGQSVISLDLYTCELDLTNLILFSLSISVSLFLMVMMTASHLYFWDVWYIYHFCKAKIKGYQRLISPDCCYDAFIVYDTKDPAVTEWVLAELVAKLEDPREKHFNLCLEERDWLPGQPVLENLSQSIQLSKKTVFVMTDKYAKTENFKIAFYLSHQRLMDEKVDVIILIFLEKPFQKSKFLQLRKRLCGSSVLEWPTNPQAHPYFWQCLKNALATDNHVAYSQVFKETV
Assay type: cell-based
Parameters: host or cells: HEK293 (HEK-Blue-hTLR7)
Method: HEK293-Blue hTLR7 Reporter Assay:
HEK-Blue-hTLR7 cell line (Invivogen, Cat. No. hkb-htlr7) was designed so that the expression of the secreted embryonic alkaline phosphatase (SEAP) was induced by activating NF-κ and AP-1 via stimulating human TLR7 with TLR7 agonists.
HEK-Blue-hTLR7 cells were seeded at a density of 4×10^4 cells/well in a volume of 180 μL in a 96-well plate in DMEM (Cat. No. 11965-092) supplemented with 10% (v/v) heat-inactivated fetal bovine serum (FBS) (Gibco, 10099-1441), 100 U/ml penicillin and 100 μg/ml streptomycin (Gibco, 15140122) containing […], […] and 10% (v/v) heat-inactivated fetal bovine serum. The cells were settled for 5 hrs, then treated with increasing amounts of tested compounds at 37° C. for 24 hrs. Then 20 μL of the supernatant from each well was incubated with 180 uL Quanti-blue substrate solution at 37° C. for 10-30 mins before the activity of the SEAP was determined at 620-655 nm using a spectrophotometer. The EC50 value for each compound was calculated with GraphPad Prism software using the sigmoidal dose-response function.

Structure (SMILES)	EC50
CC(C)COc1nc(N)c2ncc(Cc3ccc(CN4CCCC4)cc3)n2n1 [Compound A54, 2-isobutoxy-7-(4-(pyrrolidin-1-ylmethyl)benzyl)imidazo[2,1-f][1,2,4]triazin-4-amine]	> 10 µM
CCCCOc1nc(N)c2ncc(Cc3ccc(OC4CCNC4)cc3F)n2n1 (stereo not drawn) [Compound A61, 2-butoxy-7-(2-fluoro-4-(pyrrolidin-3-yloxy)benzyl)imidazo[2,1-f][1,2,4]triazin-4-amine]	0.183 µM
CCCCOc1nc(N)c2ncc(Cc3cnn(CC4CCCNC4)c3)n2n1 (stereo not drawn) [Compound A76, 2-butoxy-7-((1-(piperidin-3-ylmethyl)-1H-pyrazol-4-yl)methyl)imidazo[2,1-f][1,2,4]triazin-4-amine]	> 10 µM
CCCCOc1nc(N)c2ncc(Cc3cccc(OCCCN(C)C)c3)n2n1 [Compound A23, 2-butoxy-7-(3-(3(dimethylamino)propoxy)benzyl)imidazo[2,1-f][1,2,4]triazin-4-amine]	> 10 µM
CCCCOc1nc(N)c2ncc(Cc3cccc(CN)c3)n2n1 [Compound A70, 7-(3-(aminomethyl)benzyl)-2-butoxyimidazo[2,1-f][1,2,4]triazin-4-amine]	> 10 µM
CCCCOc1nc(N)c2ncc(Cc3ccc(CN4CCN(C)CC4)cc3)n2n1 [Compound A6, 2-butoxy-7-(4-((4-methylpiperazin-1-yl)methyl)benzyl)imidazo[2,1-f][1,2,4]triazin-4-amine]	1.51 µM
Nc1nc(OCCCC(F)(F)F)nn2c(Cc3cccc(CN4CCCC4)c3)cnc12 [Compound A18, 7-(3-(pyrrolidin-1-ylmethyl)benzyl)-2-(4,4,4-trifluorobutoxy)imidazo[2,1-f][1,2,4]triazin-4-amine]	> 10 µM
CCCCOc1nc(N)c2ncc(Cc3cnc(OC4CCNCC4)c(C)c3)n2n1 [Compound A72, 2-butoxy-7-((5-methyl-6-(piperidin-4-yloxy)pyridin-3-yl)methyl)imidazo[2,1-f][1,2,4]triazin-4-amine]	0.462 µM
Nc1nc(OCc2cccnc2)nn2c(Cc3ccc(CN4CCCC4)cc3)cnc12 [Compound A68, 2-(pyridin-3-ylmethoxy)-7-(4-(pyrrolidin-1-ylmethyl)benzyl)imidazo[2,1-f][1,2,4]triazin-4-amine]	> 10 µM
CCCCOc1nc(N)c2ncc(Cc3cnc(OC4CCNCC4)c(Cl)c3)n2n1 [Compound A40, 2-butoxy-7-((5-chloro-6-(piperidin-4-yloxy)pyridin-3-yl)methyl)imidazo[2,1-f][1,2,4]triazin-4-amine]	0.602 µM
CCCCOc1nc(N)c2ncc(Cc3ncccc3OC)n2n1 [Compound A55, 2-butoxy-7-((3-methoxypyridin-2-yl)methyl)imidazo[2,1-f][1,2,4]triazin-4-amine]	> 10 µM
CCCCOc1nc(N)c2ncc(Cc3cccc(CN4CCCCC4)c3)n2n1 [Compound A7, 2-butoxy-7-(3-(piperidin-1-ylmethyl)benzyl)imidazo[2,1-f][1,2,4]triazin-4-amine]	> 10 µM
CCCCOc1nc(N)c2ncc(Cc3ccc(OCCCN4CCOCC4)cc3)n2n1 [Compound A22, 2-butoxy-7-(4-(3-morpholinopropoxy)benzyl)imidazo[2,1-f][1,2,4]triazin-4-amine]	5.71 µM
CCCCOc1nc(N)c2ncc(Cc3ccc(Cn4cncn4)cc3)n2n1 [Compound A62, 7-(4-((1H-1,2,4-triazol-1-yl)methyl)benzyl)-2-butoxyimidazo[2,1-f][1,2,4]triazin-4-amine]	> 10 µM
CCCCOc1nc(N)c2ncc(Cc3ccc(CN4CCOCC4)cc3)n2n1 [Compound A3, 2-butoxy-7-(4-(morpholinomethyl)benzyl)imidazo[2,1-f][1,2,4]triazin-4-amine]	> 10 µM
CCCCOc1nc(N)c2ncc(Cc3ccc(OCCCN(C)C)cc3)n2n1 [Compound A2, 2-butoxy-7-(4-(3-(dimethylamino)propoxy)benzyl)imidazo[2,1-f][1,2,4]triazin-4-amine]	0.92 µM
CCCCOc1nc(N)c2ncc(Cc3ccc(CN)cc3)n2n1 [Compound A46, 7-(4-(aminomethyl)benzyl)-2-butoxyimidazo[2,1-f][1,2,4]triazin-4-amine]	> 10 µM
CCCCOc1nc(N)c2ncc(Cc3ccc(OC4C[C@H]5CC[C@@H](C4)N5)cc3F)n2n1 (stereo partly drawn) [Compound A38, 7-(4-(((1R,5S)-8-azabicyclo[3.2.1]octan-3-yl)oxy)-2-fluorobenzyl)-2-butoxyimidazo[2,1-f][1,2,4]triazin-4-amine]	1.86 µM
CCCCOc1nc(N)c2ncc(Cc3cccc(-c4ccc(CN5CCCC5)cc4)c3)n2n1 [Compound A25, 2-butoxy-7-((4′-(pyrrolidin-1-ylmethyl)-[1,1′-biphenyl]-3-yl)methyl)imidazo[2,1-f][1,2,4]triazin-4-amine]	> 10 µM
CCCCOc1nc(N)c2ncc(Cc3ccc(OC4C[C@H]5CC[C@@H](C4)N5CC)cc3F)n2n1 (stereo partly drawn) [Compound A49, 2-butoxy-7-(4-(((1R,5S)-8-ethyl-8-azabicyclo[3.2.1]octan-3-yl)oxy)-2-fluorobenzyl)imidazo[2,1-f][1,2,4]triazin-4-amine]	4.32 µM
CCCCOc1nc(N)c2ncc(Cc3ccccc3OCCCN(C)C)n2n1 [Compound A27, 2-butoxy-7-(2-(3-(dimethylamino)propoxy)benzyl)imidazo[2,1-f][1,2,4]triazin-4-amine]	> 10 µM
Cc1cc(COc2nc(N)c3ncc(Cc4ccc(CN5CCCC5)cc4)n3n2)no1 [Compound A48, 2-((5-methylisoxazol-3-yl)methoxy)-7-(4-(pyrrolidin-1-ylmethyl)benzyl)imidazo[2,1-f][1,2,4]triazin-4-amine]	> 10 µM
Nc1nc(NCc2ccco2)nn2c(Cc3ccc(CN4CCCC4)cc3)cnc12 [Compound A64, N^2-(furan-2-ylmethyl)-7-(4-(pyrrolidin-1-ylmethyl)benzyl)imidazo[2,1-f][1,2,4]triazine-2,4-diamine]	4 µM
CC(C)COc1nc(N)c2ncc(Cc3cccc(CN4CCCC4)c3)n2n1 [Compound A16, 2-isobutoxy-7-(3-(pyrrolidin-1-ylmethyl)benzyl)imidazo[2,1-f][1,2,4]triazin-4-amine]	> 10 µM
CCCCOc1nc(N)c2ncc(Cc3ccccc3CN3CCCCC3)n2n1 [Compound A15, 2-butoxy-7-(2-(piperidin-1-ylmethyl)benzyl)imidazo[2,1-f][1,2,4]triazin-4-amine]	> 10 µM
CCCCOc1nc(N)c2ncc(Cc3ccc(OCCCN)cc3)n2n1 [Compound A31, 7-(4-(3-aminopropoxy)benzyl)-2-butoxyimidazo[2,1-f][1,2,4]triazin-4-amine]	> 10 µM
CCCCOc1nc(N)c2ncc(C(O)c3cc(OC)ccn3)n2n1 (stereo not drawn) [Compound A73, (4-amino-2-butoxyimidazo[2,1-f][1,2,4]triazin-7-yl)(4-methoxypyridin-2-yl)methanol]	> 10 µM
CCCCOc1nc(N)c2ncc(Cc3ccc(OCCCN(C)C)c(C(=O)OC)c3)n2n1 [Compound A57, methyl 5-((4-amino-2-butoxyimidazo[2,1-f][1,2,4]triazin-7-yl)methyl)-2-(3-(dimethylamino)propoxy)benzoate]	0.375 µM

Same assay, conditions: HEK-Blue-hTLR7 cells, QUANTI-BLUE assay (C1-C6), 24 hrs

Structure (SMILES)	EC50
CCCCOc1nc(N)n2ncc(Cc3cccc(CN4CCCC4)c3)c2n1 [Compound C1, 2-butoxy-8-(3-(pyrrolidin-1-ylmethyl)benzyl)pyrazolo[1,5-a][1,3,5]triazin-4-amine]	> 10 µM
CCCCOc1cc(N)c2ncc(Cc3cnc(N4CCNCC4)c(C)c3)n2n1 [Compound C5, 6-butoxy-3-((5-methyl-6-(piperazin-1-yl)pyridin-3-yl)methyl)imidazo[1,2-b]pyridazin-8-amine]	> 10 µM
